# Experimental data: PMC10672269, “Evaluation of Carbonic Anhydrase, Acetylcholinesterase, Butyrylcholinesterase, and α-Glycosidase Inhibition Effects and Antioxidant Activity of Baicalin Hydrate” (Life, 2023)
# Legend:
# [1] = Fe3+ reducing ability (potassium ferricyanide reduction); details: at 30 μg/mL
# Experimental: According to prior investigation, baicalin hydrate’s ability to reduce Fe^3+ was achieved. Also, according to previous works, the Fe^3+-reducing effect of baicalin hydrate was tested. Briefly, 0.75 mL of deionized water and different doses of baicalin hydrate (10–30 μg/mL) were combined with 1.25 mL sodium phosphate buffer (pH 6.6, 0.2 M) and 1.25 mL of K3[Fe(CN)6] (1%). After 30 min incubation at 30 °C, the reaction medium was acidified with 1 mL trichloroacetic acid (10%, TCA) and re-incubated in the dark for 30 min. Finally, 0.5 mL of FeCl3 (0.1%) was transferred to the solution. The absorbance values of baicalin hydrate and references were recorded at 700 nm. The increased absorbance of the reaction mixture reflects an increasing reduction ability.
# [2] = Cu2+ reducing ability (cupric ions reducing); details: at 30 μg/mL
# Experimental: The technique of Apak et al. was utilized to assess the cupric ions (Cu^2+) reducing capacity of baicalin hydrate. After carrying out the required experimental procedures, the absorbances were detected at 450 nm using a spectrophotometer (Shimadzu, UV-1280, Kyoto, Japan). To do so, 0.2 mL CuCl2 solution (10 mM), 200 µL neocuproine solution (7.5 mM), and 200 µL CH3COONa buffer solution (1.0 M) were added to a test tube. The solution was mixed with different concentrations of baicalin hydrate (10–30 μg/mL). The total volume then reduced to 1.5 mL by adding distilled water and stored at room temperature. After 30 min incubation, the absorbances of the samples were measured at 450 nm. The increased absorbance of the reaction reflects increased reduction capacity.
# [3] = DPPH radical scavenging
# Experimental: The Blois technique was used to test the DPPH^• scavenging capacity of baicalin hydrate. Briefly, 0.25 mL of different concentrations of baicalin hydrate in ethanol (10–30 μg/mL) and 0.25 mL of DPPH radical solution (0.3 mM) in ethanol were combined with 1 mL ethanol in test tubes. The mixture was then incubated at 37 °C for 30 min. The DPPH radical scavenging activities of baicalin hydrate were measured at 517 nm.
# (§1) The IC50 values were determined using plots of activity (%) versus baicalin hydrate. Ki values and other inhibition factors were determined using Lineweaver–Burk graphs.
# [4] = ABTS radical scavenging
# Experimental: ABTS^•+ scavenging capacity of baicalin hydrate was measured according to a different work and was detected at 734 nm. ABTS^•+ was produced by the reaction of 2 mM ABTS in water with 2.45 mM potassium persulfate (K2S2O8), incubated in the dark at room temperature for five hours. Before usage, the ABTS^•+ solution was diluted to obtain an absorbance of 0.750 ± 0.025 at 734 nm with phosphate buffer (0.1 M, pH 7.4). Then, 1 mL of ABTS^•+ solution was added to 3 mL of baicalin hydrate in ethanol at different concentrations (10–30 µg/mL).
# as §1
# [5] = DMPD radical scavenging
# Experimental: Baicalin hydrate was evaluated for its capacity to remove DMPD^•+ using the Fogliano technique. For this purpose, 0.5 mL of FeCl3 (50 mM) and 1.5 mL of DMPD solution were added to the buffer solution (pH 5.3, 0.1 M). Then, this mixture was added to 1 mL of different concentrations (10–30 μg/mL) of baicalin hydrate. Then, the total volume was adjusted to 4 mL using deionized water. Finally, 1 mL of DMPD radicals were added, and their absorbances were recorded at 505 nm.
# as §1
# [6] = target: T1, acetylcholinesterase (AChE) (Electrophorus electricus, UniProt O42275); experiment: Acetylcholinesterase inhibition (Ellman); format: biochemical, electric eel (Electrophorus electricus)
# T1 construct: AChE was obtained from electric eel (Electrophorus electricus); from tissue
# T1 sequence (O42275 24-633): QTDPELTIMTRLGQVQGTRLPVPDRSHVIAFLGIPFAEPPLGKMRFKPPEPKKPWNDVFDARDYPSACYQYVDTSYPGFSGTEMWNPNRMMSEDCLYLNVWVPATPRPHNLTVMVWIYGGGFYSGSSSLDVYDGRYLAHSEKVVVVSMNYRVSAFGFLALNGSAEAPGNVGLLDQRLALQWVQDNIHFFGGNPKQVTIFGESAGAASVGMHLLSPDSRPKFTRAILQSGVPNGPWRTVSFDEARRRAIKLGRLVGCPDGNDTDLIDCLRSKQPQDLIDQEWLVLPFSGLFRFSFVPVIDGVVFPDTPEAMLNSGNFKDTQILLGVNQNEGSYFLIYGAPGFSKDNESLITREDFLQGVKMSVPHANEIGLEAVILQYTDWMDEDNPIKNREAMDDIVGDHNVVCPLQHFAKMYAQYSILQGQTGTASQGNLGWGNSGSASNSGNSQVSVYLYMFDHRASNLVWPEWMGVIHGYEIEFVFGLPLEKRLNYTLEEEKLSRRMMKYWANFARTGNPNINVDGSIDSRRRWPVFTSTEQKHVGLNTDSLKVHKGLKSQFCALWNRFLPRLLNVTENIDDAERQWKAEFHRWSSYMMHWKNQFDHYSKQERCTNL
# [7] = target: T2, butyrylcholinesterase (BChE) (Equus caballus, UniProt P81908); experiment: biochemical; parameters: species or system equine
# T2 construct: BChE was purified from equine serum; from tissue; host or cells: equine serum
# T2 sequence (P81908 whole entry): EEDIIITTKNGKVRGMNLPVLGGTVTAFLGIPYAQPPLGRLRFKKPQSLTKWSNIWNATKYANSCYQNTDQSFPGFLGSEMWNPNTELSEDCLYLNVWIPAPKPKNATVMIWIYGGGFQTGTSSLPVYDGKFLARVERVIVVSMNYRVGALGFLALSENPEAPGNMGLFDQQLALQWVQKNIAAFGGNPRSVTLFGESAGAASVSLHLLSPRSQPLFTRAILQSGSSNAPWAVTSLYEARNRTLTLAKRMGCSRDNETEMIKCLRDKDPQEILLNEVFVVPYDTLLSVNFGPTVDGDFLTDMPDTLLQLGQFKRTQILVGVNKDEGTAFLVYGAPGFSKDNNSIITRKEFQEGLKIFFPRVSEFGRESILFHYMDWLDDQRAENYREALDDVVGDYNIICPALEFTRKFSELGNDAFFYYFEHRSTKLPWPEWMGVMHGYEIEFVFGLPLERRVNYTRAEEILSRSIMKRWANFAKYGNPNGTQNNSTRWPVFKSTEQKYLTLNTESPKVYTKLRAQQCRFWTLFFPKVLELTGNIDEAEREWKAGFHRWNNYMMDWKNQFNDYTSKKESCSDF
# [8] = target: α-glycosidase; experiment: α-Glycosidase inhibition (p-NPG substrate); format: biochemical, Saccharomyces cerevisiae
# Experimental: The inhibition effects of baicalin hydrate on α-glycosidase (from Saccharomyces cerevisiae) were assessed according to the procedure outlined by Tao et al.. p-Nitrophenyl-D-glucopyranoside (p-NPG) was used as a substrate for α-glycosidase. Briefly, 75 μL phosphate buffer (pH 7.4) was mixed with 5 μL of the sample and 20 μL α-glycosidase enzyme solution in a phosphate buffer (0.15 U/mL, pH 7.4). After preincubation, 50 μL of p-nitrophenyl-D-glycopyranoside (p-NPG) in a phosphate buffer (5 mM, pH 7.4) was transferred, and the solution was incubated at 37 °C. The absorbance of the samples was measured at 405 nm. The amount of enzyme that catalyzed […] of substrate per minute (pH 7.4) was one α-glycosidase unit.
# as §1
# [9] = target: T3, hCA II isoenzyme (Homo sapiens, UniProt P00918); experiment: Human carbonic anhydrase II inhibition (esterase activity); format: biochemical
# T3 construct: hCA II isoenzyme was purified from fresh human erythrocytes; from tissue
# Experimental: hCA II isoenzyme was purified from fresh human erythrocytes. The erythrocytes were spun at 10,000× g for 30 min. The serum was then separated, and the pH was adjusted to 8.7 using solid Tris. Sepharose-4B-L-Tirozyne sulfanilamide affinity column chromatography was used to purify the CA II isoenzyme. […] Sodium acetate/NaClO4 (0.5 M, pH 5.6, 25 °C) was then used to elute the hCA II isozyme. The Bradford technique was used to measure the protein quantity throughout the purification process. Bovine serum albumin was employed as a reference protein. SDS-PAGE was used to monitor the purity of the hCA II isoform. Esterase activity was performed throughout hCA II’s purification and inhibition processes.
# as §1
# [10] = DPPH tests in a different investigation; cited from earlier work
compound,measurement,setting,value
"O=C(O)[C@H]1O[C@@H](Oc2cc3oc(-c4ccccc4)cc(=O)c3c(O)c2O)[C@H](O)[C@@H](O)[C@@H]1O [Baicalin hydrate, baicalin hydrate]","Fe^3+ reducing, absorbance λ (700 nm)",[1],1.249
same,"Fe^3+ reducing, absorbance λ (700 nm)",[1]; listed as baicalin hydrate,1.249 ± 0.014
same,"Cu^2+ reducing, absorbance λ (450 nm)",[2],0.344
same,"Cu^2+ reducing, absorbance λ (450 nm)",[2]; listed as baicalin hydrate,0.344 ± 0.033
same,DPPH• scavenging IC50,[3],13.40 µg/mL
same,ABTS•+ scavenging IC50,[4],38.37 µg/mL
same,DMPD•+ scavenging IC50,[5],90.91 µg/mL
same,IC50,[6],14.7 nM
same,Ki,[6],10 ± 2.86 nM
same,Selectivity index (Ki for AChE/Ki BChE),[6],2.86
same,IC50,[7],12.3 nM
same,Ki,"[7]; n: 3, Lineweaver–Burk",3.5 ± 0.68 nM
same,IC50,[8],24.6 nM
same,Ki,"[8]; n: 3, Lineweaver–Burk, read-out: Ki α-Gly",27 ± 9.91 nM
same,IC50,[9],31.1 nM
same,Ki,[9],19.3 ± 1.79 nM
same,median inhibitory concentration (IC50),[10],17.0 µg/mL
